Laboratory results taken from paper PMC10763615, “Identification and engineering of potent cyclic peptides with selective or promiscuous binding through biochemical profiling and bioinformatic data analysis” (RSC Chemical Biology, 2023).
Like-named read-outs stand apart in the source and are kept apart here. Positions of bridges follow the written chain, without caps; N, C: chain ends. Residues, ends and D or L forms follow the SMILES beside them.

Assays:
Type in all cases: binding
[1] = molecular target: T1, FGF-R4 ECD (Homo sapiens, UniProt P22455); assay: single concentration BLI of crude peptides; conditions: read-out: KD (4)
T1 construct: DNA constructs for the extracellular domain (ECD) of human FGF-; HPC4 (C); made in house; host or cells: HEK 293-6E
T1 sequence (P22455 22-369 limits assumed): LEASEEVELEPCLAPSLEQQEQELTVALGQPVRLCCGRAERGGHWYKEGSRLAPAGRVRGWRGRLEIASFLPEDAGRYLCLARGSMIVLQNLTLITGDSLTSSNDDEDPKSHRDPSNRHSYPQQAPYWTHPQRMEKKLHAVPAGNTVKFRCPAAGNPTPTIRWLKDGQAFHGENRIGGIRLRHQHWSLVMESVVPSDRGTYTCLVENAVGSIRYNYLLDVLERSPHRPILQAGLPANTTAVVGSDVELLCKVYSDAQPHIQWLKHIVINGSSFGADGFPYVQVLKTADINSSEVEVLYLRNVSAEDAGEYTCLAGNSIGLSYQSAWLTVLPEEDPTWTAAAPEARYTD
Method in brief: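 Streptavidin biosensors carrying biotinylated FGF receptor ECD were immersed in peptide (~1 μM for crude single-point runs, a concentration series for purified peptides) and then in peptide-free buffer. KD was obtained by fitting the BLI association and dissociation curves.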

[2] = molecular target: T2, FGF-R3C ECD (Homo sapiens, UniProt P22607); assay: biochemical; parameters: DNA constructs for the extracellular domain (ECD) of human FGF-; HPC4 (C); made in house; host or cells: HEK 293-6E
T2 sequence (P22607 23-375 limits assumed): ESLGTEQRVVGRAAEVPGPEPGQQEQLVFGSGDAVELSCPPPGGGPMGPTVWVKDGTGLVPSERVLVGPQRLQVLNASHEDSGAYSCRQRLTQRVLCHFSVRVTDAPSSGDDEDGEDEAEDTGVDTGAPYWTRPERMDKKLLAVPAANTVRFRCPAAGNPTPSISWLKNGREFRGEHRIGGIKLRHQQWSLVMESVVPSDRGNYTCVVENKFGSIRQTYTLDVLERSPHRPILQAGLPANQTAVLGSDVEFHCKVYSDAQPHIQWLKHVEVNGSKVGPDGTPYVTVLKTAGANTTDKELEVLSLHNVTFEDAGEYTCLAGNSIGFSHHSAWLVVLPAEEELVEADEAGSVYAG
Method in brief: (§1)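 Biotinylated FGF-R ECD on streptavidin biosensors was dipped into ~1 μM crude peptide in PBS pH7.4 with 0.05% Tween-20 and 0.01% BSA for association, then into buffer for dissociation, and followed by BLI. Fitted KD values were adjusted for peptide concentration measured by UPLC-CAD.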

[3] = molecular target: T3, FGF-R1C ECD (Homo sapiens, UniProt P11362); assay: biochemical; parameters: DNA constructs for the extracellular domain (ECD) of human FGF-; HPC4 (C); made in house; host or cells: HEK 293-6E
T3 sequence (P11362 22-376 limits assumed): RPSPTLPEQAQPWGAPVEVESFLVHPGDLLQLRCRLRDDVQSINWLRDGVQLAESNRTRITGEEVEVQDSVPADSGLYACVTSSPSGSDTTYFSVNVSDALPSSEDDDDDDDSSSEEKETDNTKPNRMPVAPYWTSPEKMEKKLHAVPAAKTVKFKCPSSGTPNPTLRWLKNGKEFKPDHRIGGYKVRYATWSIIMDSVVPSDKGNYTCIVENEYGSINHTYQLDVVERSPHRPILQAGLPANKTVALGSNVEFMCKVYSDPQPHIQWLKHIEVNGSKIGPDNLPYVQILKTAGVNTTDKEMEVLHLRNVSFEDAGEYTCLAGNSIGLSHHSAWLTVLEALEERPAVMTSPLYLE
Method in brief: as §1

[4] = crude T18 selection 1 (1:1:1) peptides, single concentration BLI (Table S4)

Row | SMILES | Kd [1, 4] | Kd [2] | Kd [3] | Kd ([1]; crude NNK peptides, single concentration BLI (Table S3))
1 | CSCC[C@H](NC(C)=O)C(=O)N[C@H]1CSSC[C@@H](C(=O)NCC(=O)N[C@@H](CO)C(=O)NCC(=O)N[C@@H](CO)C(=O)N[C@@H](CC(=O)O)C(=O)N[C@@H](Cc2ccc(O)cc2)C(=O)N[C@@H](CCCCN)C(=O)N[C@@H](CC(=O)O)C(=O)N[C@@H](CC(=O)O)C(=O)N[C@@H](CC(=O)O)C(=O)N[C@@H](CC(=O)O)C(=O)N[C@@H](CCCCN)C(N)=O)NC(=O)[C@H](CCCCN)NC(=O)[C@H](CCCNC(=N)N)NC(=O)[C@H](Cc2c[nH]cn2)NC(=O)[C@H](C(C)C)NC(=O)[C@H](CC(C)C)NC(=O)[C@H](CCC(N)=O)NC(=O)[C@H](Cc2ccc(O)cc2)NC(=O)[C@H](Cc2ccc(O)cc2)NC(=O)[C@H](CCCCN)NC(=O)[C@H](C(C)C)NC(=O)[C@H](Cc2c[nH]c3ccccc23)NC(=O)[C@H](CCCNC(=N)N)NC1=O (Ac-MCRWVKYYQLVHRKCGSGSDYKDDDDK-NH2; disulfide 2-15) | 0.001 µM | > 10 µM | > 10 µM | –
2 | CSCC[C@H](NC(C)=O)C(=O)N[C@H]1CSSC[C@@H](C(=O)NCC(=O)N[C@@H](CO)C(=O)NCC(=O)N[C@@H](CO)C(=O)N[C@@H](CC(=O)O)C(=O)N[C@@H](Cc2ccc(O)cc2)C(=O)N[C@@H](CCCCN)C(=O)N[C@@H](CC(=O)O)C(=O)N[C@@H](CC(=O)O)C(=O)N[C@@H](CC(=O)O)C(=O)N[C@@H](CC(=O)O)C(=O)N[C@@H](CCCCN)C(N)=O)NC(=O)[C@H](CCC(=O)O)NC(=O)[C@H](CCCNC(=N)N)NC(=O)[C@H](CCCNC(=N)N)NC(=O)[C@H](Cc2c[nH]cn2)NC(=O)[C@H](Cc2ccccc2)NC(=O)[C@H](CCC(N)=O)NC(=O)[C@H](CC(C)C)NC(=O)[C@H](Cc2ccc(O)cc2)NC(=O)[C@H](Cc2ccc(O)cc2)NC(=O)[C@H](Cc2c[nH]c3ccccc23)NC(=O)[C@H](CC(C)C)NC1=O (Ac-MCLWYYLQFHRRECGSGSDYKDDDDK-NH2; disulfide 2-14) | 0.005 µM | > 10 µM | 0.021 µM | –
3 | CC[C@H](C)[C@@H]1NC(=O)[C@H](Cc2c[nH]c3ccccc23)NC(=O)[C@H]([C@@H](C)CC)NC(=O)[C@H](CO)NC(=O)[C@@H]2CCCN2C(=O)[C@H](Cc2c[nH]cn2)NC(=O)[C@H](CO)NC(=O)[C@H](Cc2c[nH]c3ccccc23)NC(=O)[C@H](Cc2c[nH]c3ccccc23)NC(=O)[C@H](C(C)C)NC(=O)[C@@H](NC(=O)[C@H](CCSC)NC(C)=O)CSSC[C@@H](C(=O)NCC(=O)N[C@@H](CO)C(=O)NCC(=O)N[C@@H](CO)C(=O)N[C@@H](CC(=O)O)C(=O)N[C@@H](Cc2ccc(O)cc2)C(=O)N[C@@H](CCCCN)C(=O)N[C@@H](CC(=O)O)C(=O)N[C@@H](CC(=O)O)C(=O)N[C@@H](CC(=O)O)C(=O)N[C@@H](CC(=O)O)C(=O)N[C@@H](CCCCN)C(N)=O)NC1=O (Ac-MCVWWSHPSIWICGSGSDYKDDDDK-NH2; disulfide 2-13) | > 10 µM | > 10 µM | 0.065 µM | –
4 | CC[C@H](C)[C@@H]1NC(=O)[C@@H](NC(=O)[C@H](CCSC)NC(C)=O)CSSC[C@@H](C(=O)NCC(=O)N[C@@H](CO)C(=O)NCC(=O)N[C@@H](CO)C(=O)N[C@@H](CC(=O)O)C(=O)N[C@@H](Cc2ccc(O)cc2)C(=O)N[C@@H](CCCCN)C(=O)N[C@@H](CC(=O)O)C(=O)N[C@@H](CC(=O)O)C(=O)N[C@@H](CC(=O)O)C(=O)N[C@@H](CC(=O)O)C(=O)N[C@@H](CCCCN)C(N)=O)NC(=O)[C@H](C(C)C)NC(=O)[C@H](C(C)C)NC(=O)[C@H](Cc2c[nH]c3ccccc23)NC(=O)[C@H](Cc2ccccc2)NC(=O)[C@H](CC(=O)O)NC(=O)[C@H](CO)NC(=O)[C@H](CC(C)C)NC(=O)[C@H](CCCNC(=N)N)NC(=O)[C@H](Cc2c[nH]cn2)NC1=O (Ac-MCIHRLSDFWVVCGSGSDYKDDDDK-NH2; disulfide 2-13) | – | 0.049 µM | 0.019 µM | 0.041 µM
5 | CSCC[C@H](NC(C)=O)C(=O)N[C@H]1CSSC[C@@H](C(=O)NCC(=O)N[C@@H](CO)C(=O)NCC(=O)N[C@@H](CO)C(=O)N[C@@H](CC(=O)O)C(=O)N[C@@H](Cc2ccc(O)cc2)C(=O)N[C@@H](CCCCN)C(=O)N[C@@H](CC(=O)O)C(=O)N[C@@H](CC(=O)O)C(=O)N[C@@H](CC(=O)O)C(=O)N[C@@H](CC(=O)O)C(=O)N[C@@H](CCCCN)C(N)=O)NC(=O)[C@H](CC(=O)O)NC(=O)[C@H](CCCNC(=N)N)NC(=O)[C@H](Cc2c[nH]c3ccccc23)NC(=O)[C@H](CC(=O)O)NC(=O)[C@H](Cc2c[nH]cn2)NC(=O)[C@H](Cc2c[nH]c3ccccc23)NC(=O)[C@H](CC(=O)O)NC(=O)[C@H](Cc2ccc(O)cc2)NC(=O)[C@H](Cc2ccc(O)cc2)NC(=O)[C@H](CC(=O)O)NC(=O)[C@H](Cc2ccc(O)cc2)NC(=O)[C@@H]2CCCN2C1=O (Ac-MCPYDYYDWHDWRDCGSGSDYKDDDDK-NH2; disulfide 2-15) | 1.59 µM | > 10 µM | > 10 µM | –
6 | CC[C@H](C)[C@@H]1NC(=O)[C@H](Cc2ccc(O)cc2)NC(=O)[C@H](Cc2c[nH]c3ccccc23)NC(=O)[C@H](CCCCN)NC(=O)[C@H](C(C)C)NC(=O)[C@H](Cc2ccccc2)NC(=O)[C@H](CCCCN)NC(=O)[C@H](CC(=O)O)NC(=O)[C@@H](NC(=O)[C@H](CCSC)NC(C)=O)CSSC[C@@H](C(=O)NCC(=O)N[C@@H](CO)C(=O)NCC(=O)N[C@@H](CO)C(=O)N[C@@H](CCC(=O)O)C(=O)N[C@@H](CCC(=O)O)C(=O)NCC(=O)N[C@@H](CO)C(=O)NCC(=O)N[C@@H](CO)C(=O)N[C@@H](CC(=O)O)C(=O)N[C@@H](Cc2ccc(O)cc2)C(=O)N[C@@H](CCCCN)C(=O)N[C@@H](CC(=O)O)C(=O)N[C@@H](CC(=O)O)C(=O)N[C@@H](CC(=O)O)C(=O)N[C@@H](CC(=O)O)C(=O)N[C@@H](CCCCN)C(N)=O)NC(=O)[C@H](Cc2c[nH]cn2)NC(=O)[C@H](CCCNC(=N)N)NC(=O)[C@H](Cc2ccccc2)NC(=O)[C@H](C(C)C)NC1=O (Ac-MCDKFVKWYIVFRHCGSGSEEGSGSDYKDDDDK-NH2; disulfide 2-15) | 0.001 µM | > 10 µM | > 10 µM | –
7 | CSCC[C@H](NC(C)=O)C(=O)N[C@H]1CSSC[C@@H](C(=O)NCC(=O)N[C@@H](CO)C(=O)NCC(=O)N[C@@H](CO)C(=O)N[C@@H](CC(=O)O)C(=O)N[C@@H](Cc2ccc(O)cc2)C(=O)N[C@@H](CCCCN)C(=O)N[C@@H](CC(=O)O)C(=O)N[C@@H](CC(=O)O)C(=O)N[C@@H](CC(=O)O)C(=O)N[C@@H](CC(=O)O)C(=O)N[C@@H](CCCCN)C(N)=O)NC(=O)[C@H](Cc2c[nH]c3ccccc23)NC(=O)[C@H](CC(C)C)NC(=O)[C@H](CC(C)C)NC(=O)[C@H](Cc2ccc(O)cc2)NC(=O)[C@H](Cc2ccc(O)cc2)NC(=O)[C@H](Cc2ccccc2)NC(=O)[C@H](CC(C)C)NC(=O)[C@H](Cc2c[nH]cn2)NC(=O)[C@H](CCC(=O)O)NC(=O)[C@H](CCCCN)NC(=O)[C@H](C)NC1=O (Ac-MCAKEHLFYYLLWCGSGSDYKDDDDK-NH2; disulfide 2-14) | 0.041 µM | > 10 µM | > 10 µM | –
